{"source": "patent US8822168B2", "about": "“Assays for detecting small nuclear ribonucleoprotein particle assembly and survival of motor neurons activity” (The Trustees of the University of Pennsylvania, priority 2005, dated 2014)", "key": {"SMN complex": {"tested_on": "SMN complex", "assay": "high-throughput 384-well SMN complex activity / snRNP assembly assay", "assay_type": "biochemical", "conditions": "test compound added to labeled RNA, cell extract and ATP; identified inhibitors, FIG. 10", "source_text": "The present assay comprises labeling an RNA, in the case of an assay to measure Sm core activity, the RNA is snRNA. The RNA is preferably labeled with a non-radioactive tag, such as biotin-UTP. […] The labeled RNA binds the plate through the interaction between biotin and avidin/streptavidin. The RNA binding proteins present in the cell extract bind their RNA target at sequence specific sites, forming a ribonucleoprotein complex in the multi-well plate substrate. The ribonucleoprotein complex is captured on the plate and the plate is washed one or more times. An anti RNA binding protein antibody is then added to the plate. The plate is again washed one or more times and an labeled antibody, such as an HRP labeled antibody, is added to the multi-well plate substrate. The plate is washed one or more times, and HRP substrate is added. Chemiluminescence generated by HRP is detected using a plate reader.\nFive microliters of test compound dissolved in DMSO were added to each well of the plate. Five microliters of HeLa whole cell extract containing 8 μg of total protein was added to each well. The plate was centrifuged (5 minutes at 1000 rpm), and the assembly reactions were allowed to proceed for 1 hour at room temperature. The reaction mixtures were aspirated and 20 μl/well of Y12 antibody (diluted 1:1000 in RSB-500 (10 mM Tris/HCl, pH 7.5, 500 mM NaCl, 2.5 mM MgCl2, and 0.1% Nonidet P-40 (NP-40)) containing 1 mg/ml BSA, 2 mg/ml heparin, and 1× Complete EDTA-free Protease Inhibitor Cocktail) was added. The plate was centrifuged for 5 minutes at 1000 rpm, and incubated for 1 hour at room temperature.\nThe plate was washed 10× with RSB-500 using an automated plate washer, followed by the addition of 20 ml/well of horseradish peroxidase-conjugated AffiniPure goat anti-mouse IgG+IgM (diluted 1:10,000 in RSB-500 containing 1 mg/ml BSA) for 1 hour at room temperature. The plate was centrifuged for 5 minutes at 1000 rpm. The plate was then washed 10× using an automated washer and 20 μl of SuperSignal ELISA Femto Maximum Sensitivity enhanced chemiluminescence substrate working solution was added into each well. The plate was then centrifuged for 5 minutes at 1000 rpm. The luminescence signal was measured using a plate Reader.\nThe assay of the present invention can also be used to determine the dose response activity of a compound on an RNA binding protein-RNA complex."}, "[1]": {"tested_on": "Sm core assembly on U4 snRNA in HeLa cytoplasmic extracts", "assay": "magnetic beads assay for in vitro assembly of snRNPs (Sm core assembly)", "assay_type": "biochemical", "conditions": "cell extracts, AMP-PNP in place of ATP, FIG. 3A", "procedure": "For quantitative in vitro assembly assays on magnetic beads, cytoplasmic extracts were prepared and used for assembly on biotin-labeled snRNAs using the standard reconstitution conditions in 96-well plates. Following the reactions, Y12 antibodies immobilized onto the magnetizable Dynabeads Protein A (Dynal Biotech ASA, Oslo, Norway) in 100 μl of RSB-500 buffer (10 mM Tris/HCl pH 7.5, 500 mM NaCl, 2.5 mM MgCl2) containing 2 mg/ml heparin, 0.1% NP-40, and 0.2 U/μl RNasin Plus RNase inhibitor (Promega, Madison, Wis.) were added to each well. Immunoprecipitations in the 96-well plates were carried out with gentle mixing at 750 rpm in a Thermomixer (Eppendorf, Germany) at 30° C. for 1 hour. The plates were subsequently transferred to a Kingfisher 96 magnetic particle processor (Thermo Labsystems, Vantaa, Finland) for automatic washing of the Dynabeads in each well with wash buffer (RSB-500, 0.1% NP-40) 5 times. […] The plates were transferred to a Wallac Victor2 multi-label plate reader (Perkin-Elmer, Wellesley, Mass.) for luminescence measurements at 495 nm. The resulting data were analyzed with Microsoft Excel.\nTo facilitate the study of the snRNP assembly process, an assay that allows a quantitative measurement of Sm core formation was developed (FIG. 2). […] This step also serves to amplify the signals for the luminescence measurement of the HRP activity on an automatic plate reader. […]"}}, "note": "“Also recorded” adds a separate entry of the source.", "data": [{"smiles": "O=C1C(SCCO)=C(SCCO)C(=O)c2ccccc21", "note": "[2,3-bis[(2-Hydroxyehtyl)thio]-1,4-naphthoquinone]", "values": [{"measurement": "formation of an RNA binding protein-RNA complex", "setting": "SMN complex", "result": "inhibits the formation of an RNA binding protein-RNA complex"}]}, {"smiles": "Nc1ncnc2c1ncn2[C@@H]1O[C@H](COP(=O)(O)OP(=O)(O)NP(=O)(O)O)[C@@H](O)[C@H]1O", "note": "[AMP-PNP, adenosine 5′-(β,γ-imido)triphosphate]", "values": [{"measurement": "Sm core assembly (snRNP complex formation)", "setting": "[1]", "result": "does not permit the formation; also recorded: does not occur"}]}, {"smiles": "CC1(C)CCC2=C(O1)c1ccccc1C(=O)C2=O", "note": "[beta-lapachone]", "values": [{"measurement": "formation of an RNA binding protein-RNA complex", "setting": "SMN complex", "result": "inhibits the formation of an RNA binding protein-RNA complex"}]}, {"smiles": "Oc1c(Cl)cc(Cl)cc1Sc1cc(Cl)cc(Cl)c1O", "note": "[bithionol]", "values": [{"measurement": "formation of an RNA binding protein-RNA complex", "setting": "SMN complex", "result": "inhibits the formation of an RNA binding protein-RNA complex"}]}, {"smiles": "Oc1c(Cl)cc(Cl)c(Cl)c1Cc1c(O)c(Cl)cc(Cl)c1Cl", "note": "[hexachlorophene]", "values": [{"measurement": "formation of an RNA binding protein-RNA complex", "setting": "SMN complex", "result": "inhibits the formation of an RNA binding protein-RNA complex"}]}]}
